Consider 8 compounds from paper PMC9016807, “Metabolic, Pharmacokinetic, and Activity Profile of the Liver Stage Antimalarial (RC-12)” (ACS Omega, 2022).

Entries after “also recorded” stand apart in the source; their conditions may differ. Like-named read-outs stand apart in the source and are kept apart here.

For orientation: IC50 means the concentration that inhibits the measured activity by half. As a reminder, the inhibition is the drop in the measured response relative to a control, in per cent.

For data set [1], the system named is P. cynomolgi schizont (large forms) and hypnozoite (small forms) liver-stage parasites. The experiment in a line: P. cynomolgi liver-stage in vitro assay in rhesus monkey hepatocytes. It is filed as cell-based. Particulars: Plasmodium cynomolgi, Hepatocyte, in Macaca mulatta. As to the method: (§1) Compound 1 and its metabolites were tested in both prophylactic and radical cure modes for activity against P. vivax liver-stage parasites.[16],[17] In the prophylactic assay, compounds are added the day after sporozoite invasion into hepatocytes in order to characterize the compound activity against established liver forms with a parasitophorous vacuole membrane (as opposed to activity on preinvasion sporozoites) and prior to complete maturation of hypnozoites into drug-insensitive dormant forms, which appear at about 5 days postinvasion.[18] In the radical cure assay, compounds are added at day 5 postinfection to characterize activity against late-stage schizonts and mature PI4K inhibitor-insensitive hypnozoites.[19] In these experiments, the threshold for activity is 75% inhibition. […] Similarly, as previously described,[20] 10 μM concentrations of 1 and its metabolites were also tested for activity against P. cynomolgi schizont (large forms) and hypnozoite (small forms) liver-stage parasites cultured in rhesus monkey hepatocytes. In these experiments, the threshold for activity is 50% inhibition.

The subject of data set [2] is P. vivax liver-stage parasites. The experiment in a line: P. vivax liver-stage in vitro assay, radical cure mode. The format is cell-based, Plasmodium vivax. Particulars: Plasmodium vivax. As to the method: as §1
(§2) Compounds were prepared as 20 mM stock solutions in DMSO and tested in an eight-point semilog (1/3) dilution series from 20 μM in 384-well assay plates in both prophylactic and radical cure mode against P. vivax liver-stage parasites as previously described.[16] Following ethical approval from the Institutional Ethics Committee of the Thai Ministry of Public Health, the Ethical Review Committee of Faculty of Tropical Medicine, Mahidol University (TMEC 11-008 and 14-016), the Oxford Tropical Medicine Ethical Committee, Oxford University, England (OxTREC 17-11 and 40–14), and the Cambodian National Ethics Committee for Health Research (101NECHR), isolates of P. vivax infected blood were collected from patent volunteers in Tak province, Thailandm and Mondulkiri province, Cambodia. Samples were collected by venipuncture into heparin tubes prior to replacement of patient serum with nonimmune AB human serum and feeding to laboratory-reared Anopheles dirus cracens or An. dirus A mosquitoes via water-jacket artificial membrane feeders or the Hemotek insect feeding system (Hemotek, Blackburn, UK) set to maintain the bloodmeal temperature at 37 °C. […] Cryopreserved human hepatocytes (BioIVT, Baltimore, Maryland, USA) were thawed into InVitroGro CP Medium (BioIVT), quantified for viability by trypan blue dye exclusion, diluted to 800–1000 live cells per microliter, and 18000 live cells were plated into each well of a collagen-coated 384-well plate (Greiner, Monroe, NC, USA) by a 16-channel pipet (Finnpipette, Thermo Fisher Scientific, Waltham, MA). […]

The test system of data set [3] is P. vivax liver-stage parasites. The experiment in a line: P. vivax liver-stage in vitro assay, prophylactic mode. It is filed as cell-based, Plasmodium vivax. As to the method:
as §1, §2

A short description of data set [4]: Metabolism in rhesus monkey liver microsomes. To be noted: 0.4 mg/mL protein; for microsomal CLint at 1 μM: rhesus monkey, liver microsomes, read-out: CLint of authentic metabolite incubated; for average individual metabolite formed over a 60 min incubation of 1: substrate 1 at 1 μM, percentage of initial substrate concentration, ND = not detected. It is filed as in vitro ADME. The method, then:
(§3) Following the protocols described by Charman et al.,[28]1 was incubated at 37 °C with human, rat, and rhesus monkey liver microsomes. For the determination of intrinsic clearance, the substrate concentration was 1 μM and the protein concentration was 0.4 mg/mL; for qualitative metabolite identification studies, the substrate and protein concentrations were 10 μM and 1 mg/mL, respectively. The reaction was initiated by the addition of an NADPH-regenerating buffer system, and the samples were incubated for up to 60 (for Clint determination) or 180 min (for additional metabolite identification). Samples without the test compound and without NADPH were also incubated and used as controls. The reaction was quenched by protein precipitation with the addition of an equal volume of ice-cold acetonitrile solution (containing diazepam as an internal standard), followed by vortexing and centrifugation for 3 min at 10000 rpm. The supernatant was removed and analyzed by LC/MS. LC/MS analysis was conducted using a Waters Micromass Xevo G2 QTOF MS coupled to a Waters Acquity UPLC. For metabolite identification, a Supelco Ascentis Express Amide column (50 × 2.1 mm, 2.7 μm) was used with an acetonitrile–water gradient (containing 0.05% formic acid), a flow rate of 0.4 mL/min, a gradient cycle time of 6 min, and an injection volume of 5 μL. MS analysis was conducted using positive mode electrospray ionization under MSE acquisition mode, which allows simultaneous acquisition of MS spectra at low and high collision energies. The identity of putative metabolites was confirmed by the accurate mass and a comparison of the retention times and MS/MS fragmentation patterns with authentic metabolites where available. For metabolite quantitation, the method described below for the analysis of plasma samples was used.
A general note: Liver microsomes are vesicles of endoplasmic reticulum, rich in cytochrome P450 enzymes.

Data set [5] can be described thus: Metabolism in human liver microsomes. The format is in vitro ADME. Particulars: 0.4 mg/mL protein; for microsomal CLint at 1 μM: human, liver microsomes, read-out: CLint of authentic metabolite incubated; for average individual metabolite formed over a 60 min incubation of 1: substrate 1 at 1 μM, percentage of initial substrate concentration, ND = not detected. The method, then: as §3

Data set [6] is described as follows: Metabolism in rat liver microsomes. It is filed as in vitro ADME. To be noted: 0.4 mg/mL protein; for microsomal CLint at 1 μM: rat, liver microsomes, read-out: CLint of authentic metabolite incubated; for microsomal CLint at 1 μM / CLint of authentic metabolite incubated: 1 μM substrate, NADPH, 37 °C, 60 min, single incubation; for average individual metabolite formed over a 60 min incubation of 1: substrate 1 at 1 μM, percentage of initial substrate concentration, ND = not detected. The method, then: as §3

The nature of data set [7]: Pharmacokinetics in rats after IV and PO administration. The format is in vivo, male Sprague–Dawley rats. Particulars: for metabolite in urine, percentage of the 1 dose: after IV administration of 1; for dose excreted: male, Sprague-Dawley, rat, urine, after oral administration of 1 at 27 mg/kg, read-out: recovery of metabolite in urine, percentage of the 1 dose. The method, then:
Animal studies were conducted using established procedures in accordance with the Australian Code of Practice for the Care and Use of Animals for Scientific Purposes, and the study protocols were reviewed and approved by the Monash Institute of Pharmaceutical Sciences Animal Ethics Committee. The study was conducted in overnight-fasted male Sprague–Dawley rats weighing 266–292 g. Rats had access to water ad libitum throughout the pre- and postdose sampling period, and access to food was reinstated 4 h postdose. Compound 1 was administered intravenously as a 10 min constant rate infusion via an indwelling jugular vein cannula (1 mL per rat, n = 5 rats) and orally by gavage (10 mL/kg per rat, n = 2–3 rats), and samples of arterial blood and total urine were collected up to 24 h postdose. Arterial blood was collected directly into borosilicate vials (at 4 °C) containing heparin. Blood samples were centrifuged, and the supernatant plasma was removed and stored frozen (−80 °C) until analysis by LC-MS. Plasma samples and calibration standards (prepared in blank rat plasma) were processed by protein precipitation with a 2-fold volume of acetonitrile. LC-MS analysis was conducted using a Waters Micromass Quattro Premier triple-quadrupole mass spectrometer coupled to a Waters Acquity UPLC with a Phenomenex C18 Kinetex column (50 × 2.1 mm, 2.7 μm). Elution was achieved using a methanol–water gradient (containing 8.2 mM formic acid and 1.25 mM ammonium formate) with a flow rate of 0.6 mL/min, a gradient cycle time of 6 min, and an injection volume of 2 μL. MS detection was conducted using positive electrospray ionization with multiple reaction monitoring. Transitions (m/z), cone voltages (V), and CID voltages (V) were as follows: 1, 430.26 > 99.93, 40, 20; 2, 416.27 > 99.80, 30, 20; 3, 402.22 > 99.93, 35, 20; 4, 388.23 > 99.86, 35, 20; 5: 374.25 > 72.01, 35, 25; diazepam (285.25 > […], 40, 25) (used as an internal standard). The quantitation range in plasma was typically 1–10000 ng/mL, and the accuracy and precision were within ±10% and <10%, respectively, for each analyte. Urine samples were analyzed using either a 20- or 200-fold dilution with 50% acetonitrile and assayed against calibration standards prepared in the same solvent.

The mark [8] stands for this setting: 1 μM substrate, NADPH, 37 °C, 60 min, single incubation.
[9] abbreviates: control drug, read-out: IC50 (hypnozoites).
The mark [10] stands for this setting: control drug, read-out: IC50 (schizonts).

For the compound `COc1cc(NC(C)CCCN)c2ncccc2c1` (centres unmarked) [primaquine], the values for the IC50 in data set [1] (read-out: IC50 against the hypnozoite (small forms)) and in data set [1] (read-out: IC50 against the schizont (large forms)) were 2700 nM and 1100 nM, respectively.

As to `CCNCCN(CCN(CC)CC)c1cc(OC)c(O)cc1Br` [Compound 4, N-[2-(Ethylamino)ethyl]-N-[2-(diethylamino)ethyl]-2-bromo-4-hydroxy-5-methoxyaniline 1,5-Naphthalenedisulfonate], the IC50 was 15500 nM in data set [2] (n = 2, read-out: IC50 against schizonts) and 2630 nM in data set [3] (Plasmodium vivax, n = 3, read-out: IC50 against schizonts). The microsomal CLint at 1 μM in data set [4] (setting [8]) was 12 µL/min/mg; in data set [5] (setting [8]), under 3 µL/min/mg; in data set [6] it was 45 µL/min/mg. Besides, the “average individual metabolite formed over a 60 min incubation of 1” value in data set [4] is 2.4%; in data set [6] it was 6.4%. The inhibition at 10 µM in data set [1] (10 μM, first run, read-out: inhibition of growth of the schizont (large forms)) stood at 70%.

Consider `CCNCCN(CCN(CC)CC)c1cc(OC)c(OC)cc1Br` [Compound 3, N-[2-(Ethylamino)ethyl]-N-[2-(diethylamino)ethyl]-2-bromo-4,5-dimethoxyaniline 1,5-Naphthalenedisulfonate], for which the microsomal CLint at 1 μM in data set [4] (setting [8]) was 19 µL/min/mg; in data set [5] (setting [8]), under 3 µL/min/mg; in data set [6], 24 µL/min/mg. For the same compound, the “average individual metabolite formed over a 60 min incubation of 1” value in data set [4] worked out at 20%; in data set [5], 1.6%; in data set [6] it was 64%. The “metabolite in urine, percentage of the 1 dose” value in data set [7] is on record as 1.7%. Further, the dose excreted in data set [7] stood at 3.3%.

In the case of `CCN(CC)CCN(CCN(CC)CC)c1cc(OC)c(O)cc1Br` [Compound 2, N,N-Bis[2-(diethylamino)ethyl]-2-bromo-4-hydroxy-5-methoxyaniline 1,5-Naphthalenedisulfonate], the values for the microsomal CLint at 1 μM in data set [4] (setting [8]), in data set [5] (setting [8]) and in data set [6] were 8 µL/min/mg, under 3 µL/min/mg and 264 µL/min/mg, respectively. Moreover, the entries for the “average individual metabolite formed over a 60 min incubation of 1” value in data set [4] and in data set [5] were 15% and 0.2%, respectively. In addition, in data set [6], the “CLint of authentic metabolite incubated” value is on record as “highly unstable”.

As for `Br.Br.Br.CCN(CC)CCN(CCN(CC)CC)c1cc(O)c(OC)cc1Br` [Compound 6, N,N-Bis[2-(diethylamino)ethyl]-2-bromo-5-hydroxy-4-methoxyaniline trihydrobromide], the “CLint of authentic metabolite incubated” value in data set [4] (setting [8]), in data set [5] (setting [8]) and in data set [6] was “very unstable; also recorded: highly unstable in all species” each time.

`CNC(=O)c1ccc(-c2cnc3cnc(C(=O)N(C)c4ccc(Cl)cc4)cn23)cc1` [KDU691, reference compound]: the IC50 in data set [3] (setting [9]) was 53.5 nM; in data set [3] (setting [10]) it was 11.4 nM.

In the case of `CCNCCN(CCNCC)c1cc(OC)c(OC)cc1Br` [Compound 5, N,N-Bis[2-(ethylamino)ethyl]-2-bromo-4,5-dimethoxyaniline 1,5-naphthalenedisulfonate], the microsomal CLint at 1 μM in data set [4] (setting [8]) came to 7.3 µL/min/mg; in data set [5] (setting [8]) it was 6 µL/min/mg; in data set [6], 4.4 µL/min/mg. Also, the “average individual metabolite formed over a 60 min incubation of 1” value is recorded as 1.4% in data set [4] and 25% in data set [6]. For the same compound, the “metabolite in urine, percentage of the 1 dose” value in data set [7] stood at 1.2%. Moreover, the dose excreted in data set [7] amounted to 3%.

Consider `CC[C@@]1([C@@H]2O[C@@H]([C@H]3O[C@@](O)(CO)[C@H](C)C[C@@H]3C)C[C@@H]2C)CC[C@H]([C@]2(C)CC[C@]3(C[C@H](O)[C@@H](C)[C@@H]([C@@H](C)[C@@H](OC)[C@H](C)C(=O)O)O3)O2)O1` [monensin, reference compound], for which the IC50 was 102 nM in data set [2] (setting [9]) and 12.4 nM in data set [2] (setting [10]).
